From patent US12116343B2, “Inhibitors of APOL1 and methods of using same” (Vertex Pharmaceuticals Incorporated, priority 2020, dated 2024) come the findings set out here.

In this test the target is T1, G1 APOL1 (Homo sapiens, UniProt O14791, I384M/S342G).
T1 construct: expressed in transfected cells
T1 sequence (O14791 28-398 S342G/I384M): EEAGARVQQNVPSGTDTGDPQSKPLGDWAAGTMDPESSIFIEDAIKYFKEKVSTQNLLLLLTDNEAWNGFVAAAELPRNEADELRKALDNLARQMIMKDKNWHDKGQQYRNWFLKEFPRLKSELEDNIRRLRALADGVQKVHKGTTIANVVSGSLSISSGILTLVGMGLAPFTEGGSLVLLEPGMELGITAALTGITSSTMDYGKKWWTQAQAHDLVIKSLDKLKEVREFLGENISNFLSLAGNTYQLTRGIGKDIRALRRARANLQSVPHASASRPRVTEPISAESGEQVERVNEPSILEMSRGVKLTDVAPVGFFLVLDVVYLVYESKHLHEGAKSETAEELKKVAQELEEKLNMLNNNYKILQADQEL
The test is described as follows: Acute APOL1 Thallium Assay with inducible stable clones of HEK 293 cells. Format: cell-based. To be noted: HEK 293 T-Rex cells expressing G1 APOL1; read-out: Thallium Assay (IC50). Summed up:
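Tetracycline-inducible HEK293 T-Rex clone G1 DC3.25 expressing G1 APOL1, plated at 26000 cells/well in Opti-MEM with tetracycline induction. APOL1 pore activity read on FLIPR as fluorescence increase from Tl+ influx into cells loaded with a Tl+-sensitive AM-ester dye.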

Usually IC50 stands for the concentration needed to halve the response being measured. On to `CC(C)C(CO)NC(=O)[C@H]1C[C@H](c2c(-c3ccc(F)cc3)[nH]c3c(F)cc(F)cc32)C1` (some centres unmarked) [Compound 29], for which the IC50 is greater than 1000 nM.
The figure for `Cc1ccn(CCNC(=O)[C@H]2C[C@H](c3c(-c4ccc(F)cc4)[nH]c4c(F)cc(F)cc43)C2)n1` [Compound 35] is greater than 1000 nM; for `C#CC(CO)NC(=O)[C@H]1C[C@H](c2c(-c3ccc(F)cc3)[nH]c3c(F)cc(F)cc32)C1` (some centres unmarked) [Compound 196] it is 250 to 1000 nM; for `CC[C@H](CO)NC(=O)[C@H]1C[C@H](c2c(-c3ccc(F)cc3)[nH]c3c(F)cc(F)cc32)C1` [Compound 203] it is 250 to 1000 nM.
The result for `O=C(NC1(CO)CCOC1)[C@H]1C[C@H](c2c(-c3ccc(F)cc3)[nH]c3c(F)cc(F)cc32)C1` (some centres unmarked) [Compound 194] reads less than 250 nM.
Take `CC[C@@H](CO)NC(=O)[C@H]1C[C@H](c2c(-c3ccc(F)cc3)[nH]c3c(F)cc(F)cc32)C1` [Compound 204]: the IC50 fell in the range of 250 to 1000 nM.
As to `Cc1nnc(CNC(=O)[C@H]2C[C@H](c3c(-c4ccc(F)cc4)[nH]c4c(F)cc(F)cc43)C2)o1` [Compound 172], the half-maximal inhibitory concentration (IC50) fell in the range of 250 to 1000 nM.
The result for `C[C@@H](NC(=O)[C@H]1C[C@H](c2c(-c3ccc(F)cc3)[nH]c3c(F)cc(F)cc32)C1)C(N)=O` [Compound 28] reads 250 to 1000 nM.
The figure for `O=C(NC[C@H](O)CO)[C@H]1C[C@H](c2c(-c3ccc(F)cc3)[nH]c3c(F)cc(F)cc32)C1` [Compound 225] is greater than 1000 nM.
The result for `CC(C)(CO)NC(=O)[C@H]1C[C@H](c2c(-c3ccc(F)cc3)[nH]c3c(F)cc(F)cc32)C1` [Compound 31] reads less than 250 nM.
`COC[C@@H]1CCN1C(=O)[C@H]1C[C@H](c2c(-c3ccc(F)cc3)[nH]c3c(F)cc(F)cc32)C1` [Compound 220]: the IC50 was greater than 1000 nM.
The result for `O=C(NCC1(O)COC1)[C@H]1C[C@H](c2c(-c3ccc(F)cc3)[nH]c3c(F)cc(F)cc32)C1` [Compound 185] reads 250 to 1000 nM; that for `O=C1NCCC1CNC(=O)[C@H]1C[C@H](c2c(-c3ccc(F)cc3)[nH]c3c(F)cc(F)cc32)C1` (some centres unmarked) [Compound 208], greater than 1000 nM; that for `O=C([C@H]1C[C@H](c2c(-c3ccc(F)cc3)[nH]c3c(F)cc(F)cc32)C1)N1CCOC[C@@H]1CO` [Compound 219], 250 to 1000 nM.
Regarding `NC(=O)C1CC(c2c(-c3ccc(F)cc3)[nH]c3c(F)cc(F)cc23)C1` (centres unmarked) [Compound 278, 3-[5,7-difluoro-2-(4-fluorophenyl)-1H-indol-3-yl]cyclobutanecarboxamide], the 50% inhibitory concentration (IC50) was 250 to 1000 nM.
The result for `CC(C#N)(CO)NC(=O)[C@H]1C[C@H](c2c(-c3ccc(F)cc3)[nH]c3c(F)cc(F)cc32)C1` (some centres unmarked) [Compound 191] reads 250 to 1000 nM; that for `O=C(N[C@H]1COC[C@@H]1O)[C@H]1C[C@H](c2c(-c3ccc(F)cc3)[nH]c3c(F)cc(F)cc32)C1` [Compound 184], 250 to 1000 nM; that for `O=C1NCCCC1NC(=O)[C@H]1C[C@H](c2c(-c3ccc(F)cc3)[nH]c3c(F)cc(F)cc32)C1` (some centres unmarked) [Compound 23], 250 to 1000 nM.
The result for `O=C(N[C@@H]1CCOC1)[C@H]1C[C@H](c2c(-c3ccc(F)cc3)[nH]c3c(F)cc(F)cc32)C1` [Compound 19] reads 250 to 1000 nM; that for `O=C(N[C@@H]1CCC[C@@H]1O)[C@H]1C[C@H](c2c(-c3ccc(F)cc3)[nH]c3c(F)cc(F)cc32)C1` [Compound 179], greater than 1000 nM; that for `O=C([C@H]1C[C@H](c2c(-c3ccc(F)cc3)[nH]c3c(F)cc(F)cc32)C1)N1CCC[C@H]1CO` [Compound 210], greater than 1000 nM.
The result for `CC1CC(NC(=O)[C@H]2C[C@H](c3c(-c4ccc(F)cc4)[nH]c4c(F)cc(F)cc43)C2)C(=O)O1` (some centres unmarked) [Compound 207] reads greater than 1000 nM; that for `O=C(NC1(CO)CC(F)(F)C1)[C@H]1C[C@H](c2c(-c3ccc(F)cc3)[nH]c3c(F)cc(F)cc32)C1` [Compound 202], 250 to 1000 nM; that for `O=C(NCc1nnco1)[C@H]1C[C@H](c2c(-c3ccc(F)cc3)[nH]c3c(F)cc(F)cc32)C1` [Compound 171], 250 to 1000 nM.
Turning to `O=C(NC[C@H]1CC[C@@H](CO)O1)[C@H]1C[C@H](c2c(-c3ccc(F)cc3)[nH]c3c(F)cc(F)cc32)C1` [Compound 189], the IC50 was greater than 1000 nM.
The figure for `O=C(NC1CCOC1)[C@H]1C[C@H](c2c(-c3ccc(F)cc3)[nH]c3c(F)cc(F)cc32)C1` (some centres unmarked) [Compound 15] is greater than 1000 nM.
The figure for `O=C(N[C@H]1CC[C@H]1O)[C@H]1C[C@H](c2c(-c3ccc(F)cc3)[nH]c3c(F)cc(F)cc32)C1` [Compound 181] is 250 to 1000 nM.
Turning to `CC1(NC(=O)[C@H]2C[C@H](c3c(-c4ccc(F)cc4)[nH]c4c(F)cc(F)cc43)C2)CCNC1=O` (mixture of isomers) [Compound 197], the IC50 was in the range of 250 to 1000 nM.
The result for `NC(=O)[C@@H](CO)NC(=O)[C@H]1C[C@H](c2c(-c3ccc(F)cc3)[nH]c3c(F)cc(F)cc32)C1` [Compound 221] reads less than 250 nM.
`COCCNC(=O)[C@H]1C[C@H](c2c(-c3ccc(F)cc3)[nH]c3c(F)cc(F)cc32)C1` [Compound 12]: the IC50 was greater than 1000 nM.
The figure for `O=C(NCCn1cccc1)[C@H]1C[C@H](c2c(-c3ccc(F)cc3)[nH]c3c(F)cc(F)cc32)C1` [Compound 34] is greater than 1000 nM.
The result for `CS(=O)(=O)CCNC(=O)[C@H]1C[C@H](c2c(-c3ccc(F)cc3)[nH]c3c(F)cc(F)cc32)C1` [Compound 40] reads 250 to 1000 nM; that for `O=C([C@H]1C[C@H](c2c(-c3ccc(F)cc3)[nH]c3c(F)cc(F)cc32)C1)N1C[C@@H](O)[C@H](O)C1` [Compound 227], greater than 1000 nM; that for `O=C1OCC[C@@H]1NC(=O)[C@H]1C[C@H](c2c(-c3ccc(F)cc3)[nH]c3c(F)cc(F)cc32)C1` [Compound 188], 250 to 1000 nM.
The result for `O=C(N[C@H]1CNC[C@@H]1O)[C@H]1C[C@H](c2c(-c3ccc(F)cc3)[nH]c3c(F)cc(F)cc32)C1` [Compound 212] reads greater than 1000 nM; that for `CS(=O)(=O)NC(=O)[C@H]1C[C@H](c2c(-c3ccc(F)cc3)[nH]c3c(F)cc(F)cc32)C1` [Compound 213], greater than 1000 nM; that for `O=C(NCCn1cncn1)[C@H]1C[C@H](c2c(-c3ccc(F)cc3)[nH]c3c(F)cc(F)cc32)C1` [Compound 36], less than 250 nM.
With `C[C@H](O)[C@@H](CO)NC(=O)[C@H]1C[C@H](c2c(-c3ccc(F)cc3)[nH]c3c(F)cc(F)cc32)C1` [Compound 16], the concentration for half-maximal inhibition (IC50) was less than 250 nM.
As for `CN(C(=O)[C@H]1C[C@H](c2c(-c3ccc(F)cc3)[nH]c3c(F)cc(F)cc32)C1)C1COCC1O` (some centres unmarked) [Compound 205], the half-maximal inhibitory concentration (IC50) is greater than 1000 nM.
The result for `Cc1cc(CNC(=O)[C@H]2C[C@H](c3c(-c4ccc(F)cc4)[nH]c4c(F)cc(F)cc43)C2)on1` [Compound 37] reads greater than 1000 nM; that for `Cn1ccc(NC(=O)[C@H]2C[C@H](c3c(-c4ccc(F)cc4)[nH]c4c(F)cc(F)cc43)C2)n1` [Compound 22], greater than 1000 nM.
The figure for `Cn1ncc(CNC(=O)[C@H]2C[C@H](c3c(-c4ccc(F)cc4)[nH]c4c(F)cc(F)cc43)C2)n1` [Compound 198] is 250 to 1000 nM; for `CC(CO)NC(=O)[C@H]1C[C@H](c2c(-c3ccc(F)cc3)[nH]c3c(F)cc(F)cc32)C1` (mixture of isomers) [Compound 13] it is less than 250 nM; for `O=C(N[C@@H]1CCC[C@H]1O)[C@H]1C[C@H](c2c(-c3ccc(F)cc3)[nH]c3c(F)cc(F)cc32)C1` [Compound 182] it is greater than 1000 nM.
For `Cn1cc(CNC(=O)[C@H]2C[C@H](c3c(-c4ccc(F)cc4)[nH]c4c(F)cc(F)cc43)C2)cn1` [Compound 38], the IC50 was greater than 1000 nM.
The result for `Cn1cncc1CNC(=O)[C@H]1C[C@H](c2c(-c3ccc(F)cc3)[nH]c3c(F)cc(F)cc32)C1` [Compound 174] reads greater than 1000 nM; that for `O=C1N[C@H](CO)C[C@@H]1NC(=O)[C@H]1C[C@H](c2c(-c3ccc(F)cc3)[nH]c3c(F)cc(F)cc32)C1` [Compound 209], greater than 1000 nM.
The figure for `O=C1CN(C(=O)[C@H]2C[C@H](c3c(-c4ccc(F)cc4)[nH]c4c(F)cc(F)cc43)C2)CCN1` [Compound 228] is greater than 1000 nM; for `O=C(NC(CO)C1CC1)[C@H]1C[C@H](c2c(-c3ccc(F)cc3)[nH]c3c(F)cc(F)cc32)C1` (some centres unmarked) [Compound 199] it is 250 to 1000 nM.
The figure for `CC1(CO)CCN1C(=O)[C@H]1C[C@H](c2c(-c3ccc(F)cc3)[nH]c3c(F)cc(F)cc32)C1` (mixture of isomers) [Compound 218] is 250 to 1000 nM; for `COC[C@@H]1CCN1C(=O)[C@H]1C[C@H](c2c(-c3ccc(F)cc3)[nH]c3c(F)cc(F)cc32)C1` [Compound 222] it is 250 to 1000 nM; for `NC(=O)C(CO)NC(=O)[C@H]1C[C@H](c2c(-c3ccc(F)cc3)[nH]c3c(F)cc(F)cc32)C1` (some centres unmarked) [Compound 32] it is less than 250 nM.
Regarding `O=C([C@H]1C[C@H](c2c(-c3ccc(F)cc3)[nH]c3c(F)cc(F)cc32)C1)N1CC(CO)C1` [Compound 223], the concentration for half-maximal inhibition (IC50) is greater than 1000 nM.
The result for `O=C(NC[C@@H](O)CO)[C@H]1C[C@H](c2c(-c3ccc(F)cc3)[nH]c3c(F)cc(F)cc32)C1` [Compound 224] reads greater than 1000 nM; that for `O=C(NC[C@H](O)C(F)(F)F)[C@H]1C[C@H](c2c(-c3ccc(F)cc3)[nH]c3c(F)cc(F)cc32)C1` [Compound 176], 250 to 1000 nM; that for `C[C@@H](CO)NC(=O)[C@H]1C[C@H](c2c(-c3ccc(F)cc3)[nH]c3c(F)cc(F)cc32)C1` [Compound 200], less than 250 nM.
